# Measured values published in patent US9302999B2, “Substituted triazoles as herbicides” (E. I. DU PONT DE NEMOURS AND COMPANY, priority 2012, dated 2016).
# Read-outs that look alike come from different tables or passages of the source.
# Assays:
# Type in all cases: in vivo
# [1] = tested on: ducksalad (Heteranthera limosa); assay: Test C flooded paddy test: ducksalad; conditions: scale 0 to 100 (0 no effect, 100 complete control); for pest or weed control at 125 g/ha / pest or weed control at 250 g/ha / pest or weed control at 31 g/ha / pest or weed control at 62 g/ha: Heteranthera limosa, read-out: Plant response rating, Ducksalad
# In short: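 Visual ratings from 0 (no effect) to 100 (complete control), made against untreated controls 13 to 15 days after treatment, express plant response. Compounds went directly into paddy water over 2-leaf stage plants in pots flooded to 3 cm.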
# [2] = tested on: woolly cupgrass (Eriochloa villosa); assay: Test C pre-/postemergence: woolly cupgrass
# Source text: (§1) Seeds of plant species selected from blackgrass (Alopecurus myosuroides), bromegrass, downy (downy bromegrass, Bromus tectorum), foxtail, green (green foxtail, Setaria viridis), ryegrass, Italian (Italian ryegrass, Lolium multiflorum), winter wheat (Triticum aestivum), wild oat (Avena fatua), galium (catchweed bedstraw, Galium aparine), bermudagrass (Cynodon dactylon), surinam grass (Brachiaria decumbens), cocklebur (common cocklebur, Xanthium strumarium), corn (Zea mays), large crabgrass (Digitaria sanguinalis), woolly cupgrass (Eriochloa villosa), foxtail, giant (giant foxtail, Setaria faberii), goosegrass (Eleusine indica), johnsongrass (Sorghum halepense), kochia (Kochia scoparia), lambsquarters (Chenopodium album), morningglory (Ipomoea coccinea), nightshade (eastern black nightshade, Solanum ptycanthum), nutsedge, yellow (yellow nutsedge, Cyperus esculentus), pigweed (Amaranthus retroflexus), ragweed (common ragweed, Ambrosia elation), soybean (Glycine max), common (oilseed) sunflower (Helianthus annuus), Russian thistle (Salsola kali) and velvetleaf (Abutilon theophrasti) were planted into a blend of loam soil and sand and treated preemergence with test chemicals formulated in a non-phytotoxic solvent mixture which included a surfactant.
# (§2) At the same time, plants selected from these crop and weed species and also barley (winter barley, Hordeum vulgare), canarygrass (Phalaris minor), chickweed (common chickweed, Stellaria media) windgrass (Apera spica-venti) and deadnettle (henbit deadnettle, Lamium amplexicaule) were planted in pots containing Redi-Earth® planting medium (Scotts Company, 14111 Scottslawn Road, Marysville, Ohio 43041) comprising spaghnum peat moss, vermiculite, wetting agent and starter nutrients and treated with postemergence applications of test chemicals formulated in the same manner. Plants ranged in height from 2 to 18 cm (1- to 4-leaf stage) for postemergence treatments.
# (§3) Treated plants and controls were maintained in a greenhouse for 13 to 15 days, after which time all species were compared to controls and visually evaluated. Plant response ratings, summarized in Table C, are based on a scale of 0 to 100 where 0 is no effect and 100 is complete control. A dash (-) response means no test result.
# [3] = tested on: bromegrass, downy (downy bromegrass, Bromus tectorum); assay: Test C pre-/postemergence: bromegrass, downy
# Source text: as §1, §2, §3
# [4] = tested on: chamomile (scentless chamomile, Matricaria inodora); assay: Test D pre-/postemergence: chamomile
# Source text: (§4) Seeds of plant species selected from bluegrass (annual bluegrass, Poa annua), blackgrass (Alopecurus myosuroides), canarygrass (Phalaris minor), chickweed (common chickweed, Stellaria media), galium (catchweed bedstraw, Galium aparine), bromegrass, downy (downy bromegrass, Bromus tectorum), field poppy (Papaver rhoeas), field violet (Viola arvensis), foxtail, green (green foxtail, Setaria viridis), deadnettle (henbit deadnettle, Lamium amplexicaule), ryegrass, Italian (Italian ryegrass, Lolium multiflorum), kochia (Kochia scoparia), lambsquarters (Chenopodium album), oilseed rape (Brassica napus), pigweed (Amaranthus retroflexus), Russian thistle (Salsola iberica), chamomile (scentless chamomile, Matricaria inodora), speedwell (bird's-eye speedwell, Veronica persica), barley, spring (spring barley, Hordeum vulgare), wheat, spring (spring wheat, Triticum aestivum), buckwheat, wild (wild buckwheat, Polygonum convolvulus), mustard, wild (wild mustard, Sinapis arvensis), oat, wild (wild oat, Avena fatua), radish, wild (wild radish, Raphanus raphanistrum), windgrass (Apera spica-venti), barley, winter (winter barley, Hordeum vulgare), and wheat, winter (winter wheat, Triticum aestivum) were planted into a silt loam soil and treated preemergence with test chemicals formulated in a non-phytotoxic solvent mixture which included a surfactant. At the same time, these same crop and weed species were planted in pots containing the planting medium comprising spaghnum peat moss, vermiculite, wetting agent and starter nutrients and treated with postemergence applications of the test chemicals formulated in the same manner. Plants ranged in height from 2 to 18 cm (1- to 4-leaf stage).
# as §3, with “controlled growth environment” for “greenhouse”, “14” for “13”, “21 days” for “15 days,”, “D,” for “C,”
# [5] = tested on: oilseed rape (Brassica napus); assay: Test D pre-/postemergence: oilseed rape
# Source text: as §4
# as §3, with “controlled growth environment” for “greenhouse”, “14” for “13”, “21 days” for “15 days,”, “D,” for “C,”
# [6] = tested on: windgrass (Apera spica-venti); assay: Test D pre-/postemergence: windgrass
# Source text: as §4
# as §3, with “controlled growth environment” for “greenhouse”, “14” for “13”, “21 days” for “15 days,”, “D,” for “C,”
# [7] = tested on: barley, spring (spring barley, Hordeum vulgare); assay: Test D pre-/postemergence: barley, spring
# Source text: as §4
# as §3, with “controlled growth environment” for “greenhouse”, “14” for “13”, “21 days” for “15 days,”, “D,” for “C,”
# [8] = tested on: deadnettle (henbit deadnettle, Lamium amplexicaule); assay: Test C postemergence: deadnettle
# Source text: as §2, §3
# [9] = Flood (flooded paddy test), 125 g ai/ha, visual rating after 13 to 15 days
# [10] = Flood (flooded paddy test), 250 g ai/ha, visual rating after 13 to 15 days
# [11] = Preemergence, 31 g ai/ha, scale of 0 to 100, 0 is no effect, 100 is complete control
# [12] = Preemergence, 62 g ai/ha, scale of 0 to 100, 0 is no effect, 100 is complete control
# [13] = Preemergence, 125 g ai/ha, scale 0 to 100, 0 no effect, 100 complete control
# [14] = Preemergence, 250 g ai/ha, scale 0 to 100, 0 no effect, 100 complete control
# [15] = Postemergence, 31 g ai/ha, scale 0 to 100 (0 no effect, 100 complete control)
# [16] = Postemergence, 62 g ai/ha, scale 0 to 100 (0 no effect, 100 complete control)
# [17] = Postemergence, 125 g ai/ha, scale 0 to 100, 0 no effect, 100 complete control
# [18] = Postemergence, 16 g ai/ha, scale 0 to 100
# [19] = Preemergence, 16 g ai/ha, scale 0 to 100 (0 no effect, 100 complete control)
# [20] = Preemergence, 31 g ai/ha, scale 0 to 100 (0 no effect, 100 complete control)
# [21] = Preemergence, 62 g ai/ha, scale 0 to 100
# [22] = Preemergence, 125 g ai/ha, scale 0 to 100
# [23] = Postemergence, 16 g ai/ha, scale 0 to 100, 0 no effect, 100 complete control
# [24] = 31 g ai/ha, scale 0 to 100 (0 no effect, 100 complete control)
# [25] = 62 g ai/ha, scale 0 to 100 (0 no effect, 100 complete control)
# [26] = 125 g ai/ha, scale 0 to 100, 0 no effect, 100 complete control
# [27] = Postemergence, 250 g ai/ha, scale 0 to 100
smiles,measurement,setting,value
"CCc1nn(-c2ccc(C(F)(F)F)cc2)nc1Oc1cccc(OC(F)(F)F)c1 [Compound 125, 4-ethyl-5-[3-(trifluoromethoxy)phenoxy]-2-[4-(trifluoromethyl)phenyl]-2H-1,2,3-triazole]",pest or weed control at 125 g/ha,[1]; [9],75%
same,pest or weed control at 250 g/ha,[1]; [10],90%
same,pest or weed control at 31 g/ha,"[1]; Flood, 31 g ai/ha",0%
same,pest or weed control at 62 g/ha,"[1]; Flood, 62 g ai/ha",0%
Cc1nn(-c2ccc(F)c(C(F)(F)F)c2)nc1Oc1ccnc(C(F)(F)F)c1 [Compound 147],"Plant response rating, Cupgrass, Woolly",[2]; [11],50
same,"Plant response rating, Cupgrass, Woolly",[2]; [12],55
same,"Plant response rating, Cupgrass, Woolly",[2]; [13],95
same,"Plant response rating, Cupgrass, Woolly",[2]; [14],98
same,"Plant response rating, Bromegrass, Downy",[3]; [11],10
same,"Plant response rating, Bromegrass, Downy",[3]; [12],45
same,"Plant response rating, Bromegrass, Downy",[3]; [13],85
same,"Plant response rating, Bromegrass, Downy",[3]; [14],90
same,Plant response rating: Chamomile,[4]; [15],60
same,Plant response rating: Chamomile,[4]; [16],75
same,Plant response rating: Chamomile,[4]; [17],80
same,"Plant response rating, Chamomile",[4]; [18],45
same,"Plant response rating, Chamomile",[4]; [19],25
same,"Plant response rating, Chamomile",[4]; [20],15
same,"Plant response rating, Chamomile",[4]; [21],90
same,"Plant response rating, Chamomile",[4]; [22],95
same,Plant response rating: Oilseed Rape,[5]; [15],60
same,Plant response rating: Oilseed Rape,[5]; [16],95
same,Plant response rating: Oilseed Rape,[5]; [17],100
same,"Plant response rating, Oilseed Rape",[5]; [18],25
same,"Plant response rating, Oilseed Rape",[5]; [19],0
same,"Plant response rating, Oilseed Rape",[5]; [20],0
same,"Plant response rating, Oilseed Rape",[5]; [21],5
same,"Plant response rating, Oilseed Rape",[5]; [22],15
same,Plant response rating: Windgrass,[6]; [16],50
same,Plant response rating: Windgrass,[6]; [17],75
same,"Plant response rating, Windgrass",[6]; [18],15
same,"Plant response rating, Windgrass","[6]; Postemergence, 31 g ai/ha, scale 0 to 100",25
same,"Plant response rating, Windgrass",[6]; [19],0
same,"Plant response rating, Windgrass",[6]; [20],60
same,"Plant response rating, Windgrass",[6]; [21],100
same,"Plant response rating, Windgrass",[6]; [22],100
same,"Plant response rating: Barley, Spring",[7]; [15],15
same,"Plant response rating: Barley, Spring",[7]; [16],20
same,"Plant response rating: Barley, Spring",[7]; [17],25
same,"Plant response rating, Barley, Spring",[7]; [18],15
same,"Plant response rating, Barley, Spring",[7]; [19],0
same,"Plant response rating, Barley, Spring",[7]; [20],0
same,"Plant response rating, Barley, Spring",[7]; [21],5
same,"Plant response rating, Barley, Spring",[7]; [22],10
Cc1nn(-c2ccc(C(F)(F)F)cc2)nc1Cc1cccc(C(F)(F)F)c1 [Compound 124],"Plant response rating, Cupgrass, Woolly",[2]; [23],5
same,"Plant response rating, Cupgrass, Woolly",[2]; [15],5
same,"Plant response rating, Cupgrass, Woolly",[2]; [16],10
same,"Plant response rating, Cupgrass, Woolly",[2]; [17],20
same,"Plant response rating, Ducksalad",[1]; [9],90
same,"Plant response rating, Ducksalad",[1]; [10],90
same,"Plant response rating, Ducksalad","[1]; Flood, 31 g ai/ha",20
same,"Plant response rating, Ducksalad","[1]; Flood, 62 g ai/ha",90
same,"Plant response rating, Deadnettle","[8]; 16 g ai/ha, scale 0 to 100, 0 no effect, 100 complete control",75
same,"Plant response rating, Deadnettle",[8]; [24],80
same,"Plant response rating, Deadnettle",[8]; [25],98
same,"Plant response rating, Deadnettle",[8]; [26],98
same,"Plant response rating, Bromegrass, Downy",[3]; [23],0
same,"Plant response rating, Bromegrass, Downy",[3]; [15],0
same,"Plant response rating, Bromegrass, Downy",[3]; [16],0
same,"Plant response rating, Bromegrass, Downy",[3]; [17],0
"COc1nn(-c2ccc(C(F)(F)F)cc2)nc1Cn1ccc(C(F)(F)F)n1 [Compound 17, 4-methoxy-2-[4-(trifluoromethyl)phenyl]-5-[[3-(trifluoromethyl)-1H-pyrazol-1-yl]methyl]-2H-1,2,3-triazole]",pest or weed control at 62 g/ha,"[1]; Flood (flooded paddy test), 62 g ai/ha, visual rating after 13 to 15 days",0%
same,pest or weed control at 125 g/ha,[1]; [9],0%
same,pest or weed control at 250 g/ha,[1]; [10],20%
same,pest or weed control at 31 g/ha,"[1]; Flood, 31 g ai/ha",0%
Fc1ccc(-n2nc(Cc3ccnc(C(F)(F)F)c3)c(OCC(F)(F)F)n2)cc1 [Compound 142],"Plant response rating, Cupgrass, Woolly",[2]; [15],40
same,"Plant response rating, Cupgrass, Woolly",[2]; [16],40
same,"Plant response rating, Cupgrass, Woolly",[2]; [17],75
same,"Plant response rating, Cupgrass, Woolly",[2]; [27],85
same,"Plant response rating, Cupgrass, Woolly",[2]; [11],55
same,"Plant response rating, Cupgrass, Woolly",[2]; [12],70
same,"Plant response rating, Cupgrass, Woolly",[2]; [13],95
same,"Plant response rating, Cupgrass, Woolly",[2]; [14],98
same,"Plant response rating, Deadnettle",[8]; [24],100
same,"Plant response rating, Deadnettle",[8]; [25],100
same,"Plant response rating, Deadnettle",[8]; [26],100
same,"Plant response rating, Deadnettle","[8]; 250 g ai/ha, scale 0 to 100",100
same,"Plant response rating, Bromegrass, Downy",[3]; [15],25
same,"Plant response rating, Bromegrass, Downy",[3]; [16],45
same,"Plant response rating, Bromegrass, Downy",[3]; [17],45
same,"Plant response rating, Bromegrass, Downy",[3]; [27],50
same,"Plant response rating, Bromegrass, Downy",[3]; [11],20
same,"Plant response rating, Bromegrass, Downy",[3]; [12],60
same,"Plant response rating, Bromegrass, Downy",[3]; [13],90
same,"Plant response rating, Bromegrass, Downy",[3]; [14],90
